The values below come from US8895695B2, “Template-fixed beta-hairpin peptidomimetics with CXCR4 antagonizing activity” (priority 2003, dated 2014).

The subject of series [1] is human red blood cells (hRBC). Kind of series: Hemolysis. The class given is cell-based. On the procedure: The peptides were tested for their hemolytic activity against human red blood cells (hRBC). Fresh hRBC were washed three times with phosphate buffered saline (PBS) by centrifugation for 10 min at 2000×g. Peptides at a concentration of 100 μM were incubated with 20% v/v hRBC for 1 hour at 37° C. The final erythrocyte concentration was approximately 0.9×10^9 cells per ml. A value of 0% resp. 100% cell lysis was determined by incubation of the hRBC in the presence of PBS alone and respectively 0.1% Triton X-100 in H2O. The samples were centrifuged and the supernatant was 20-fold diluted in PBS buffer and the optical density (OD) of the sample at […] was measured. The 100% lyses value (OD540H2O) gave an OD540 of approximately 1.3-1.8. Percent hemolysis was calculated as follows: (OD540peptide/OD540H2O)×100%.

The next series is described as follows: in vitro. Conditions: human.
In the next series the target is CXCR4 (Homo sapiens, UniProt P61073). Kind of series: Ca2+-assay method 2 (Flexstation, SDF-1 induced calcium mobilization). More on the design: expressed in transfected cells; host or cells: mouse pre-B cell line 300-19. The series is classed as cell-based. Conditions: method 2 (Ex. 54-160), mouse pre-B cell line 300-19 with human CXCR4, 10 nM SDF-1; read-out: IC50 (nM) Ca^2+ assay. The protocol:
2.2. Ca^2+-Assay: CXCR4-Antagonizing Activity of the Peptides.
The cells were batch loaded with the Calcium 3 Assay kit (Molecular Devices) in assay buffer (Hanks Balanced salt solution, HBSS, 20 mM HEPES, pH 7.4, 0.1% BSA) for 1 h at room temperature and then 200,000 labeled cells were dispensed into black 96 well assays plates (Costar No. 3603). A 20-fold concentrated solution of peptide in assay buffer was added to the cells and the whole plate was centrifuged to settle the cells to the bottom of the wells. Calcium mobilization induced by 10 nM stromal-derived factor-1 (SDF-1) was measured in the Flexstation 384 (excitation, 485 nM; emission, 525 nM) for 90 seconds. A maximal change in fluorescence response above baseline was used to calculate antagonist activity. The data for dose response curves (antagonist concentration versus % maximum response) were fitted to a four parameter logistic equation using SoftmaxPro 4.6 (Molecular Devices), from which IC50% values were calculated.
(In general: Calcium flux is commonly read through the fluorescence of an indicator in the cells.)

Bridge positions count the residues as written; N and C are the ends. Square brackets hold non-standard residues; d marks the D form. Peptide text beside a SMILES is read from it. Phe(4-F) = N[C@@H](Cc1ccc(F)cc1)C(=O)O; 2Nal = N[C@@H](Cc1ccc2ccccc2c1)C(=O)O; Cit = NC(=O)NCCC[C@H](N)C(=O)O
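For GI50 in this document: MTT reduction read as absorbance at 595 nm, blank-corrected and expressed as percent growth relative to the time-zero cell reading, triplicate wells per concentration.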

Sequence of CXCR4 (P61073 whole entry): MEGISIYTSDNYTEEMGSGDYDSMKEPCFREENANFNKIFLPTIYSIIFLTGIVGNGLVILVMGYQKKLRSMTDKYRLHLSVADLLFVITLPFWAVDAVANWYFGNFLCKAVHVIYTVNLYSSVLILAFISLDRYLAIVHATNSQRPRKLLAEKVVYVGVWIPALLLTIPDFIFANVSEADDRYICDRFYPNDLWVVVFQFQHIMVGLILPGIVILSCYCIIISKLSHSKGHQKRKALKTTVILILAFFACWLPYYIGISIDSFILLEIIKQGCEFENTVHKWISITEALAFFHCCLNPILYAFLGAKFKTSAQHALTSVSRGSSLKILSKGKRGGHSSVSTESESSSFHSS

In series [1], `N=C(N)NCCC[C@@H]1NC(=O)[C@@H]2CSSC[C@H](NC(=O)[C@H](Cc3ccc4ccccc4c3)NC(=O)[C@H](CCCNC(=N)N)NC(=O)[C@H](CCCNC(=N)N)NC(=O)[C@H]3CCCN3C(=O)CNC1=O)C(=O)N[C@@H](Cc1ccc(O)cc1)C(=O)N[C@@H](CCC(N)=O)C(=O)N[C@@H](CCCCN)C(=O)N1CCC[C@@H]1C(=O)N1CCC[C@H]1C(=O)N[C@@H](Cc1ccc(O)cc1)C(=O)N[C@@H](CCCNC(=N)N)C(=O)N[C@@H](CCCNC(=N)N)C(=O)N2` [Ex. 69] (cyclo(YRRCRG[dP]RR[2Nal]CYQK[dP]P); disulfide 4-11) had a Hemolysis at 100 μM of 0.1%. For the same molecule, the GI50 (commonly the concentration that inhibits growth by half) at 48 h in “in vitro” turned out to be 49000 nM. The IC50 (usually the concentration that gives 50% inhibition) at CXCR4 was determined as 1.8 nM.
The molecule `N=C(N)NCCC[C@@H]1NC(=O)[C@@H]2CSSC[C@H](NC(=O)[C@H](Cc3ccc4ccccc4c3)NC(=O)[C@H](CCCNC(=N)N)NC(=O)[C@H](CCCNC(=N)N)NC(=O)[C@H]3CCCN3C(=O)CNC1=O)C(=O)N[C@@H](Cc1ccc(O)cc1)C(=O)N[C@@H](CCC(N)=O)C(=O)N[C@@H](CCCCN)C(=O)N1CCC[C@@H]1C(=O)N1CCC[C@H]1C(=O)N[C@@H](Cc1ccc(O)cc1)C(=O)N[C@@H](CCCNC(=N)N)C(=O)N[C@@H](Cc1c[nH]cn1)C(=O)N2` [Ex. 70] (cyclo(YRHCRG[dP]RR[2Nal]CYQK[dP]P); disulfide 4-11) yielded a Hemolysis at 100 μM in series [1] of 0.2%. The molecule also registered a GI50 at 48 h in “in vitro” of 40000 nM. Also, on CXCR4, the IC50 stood at 19.5 nM.
As for `CC[C@H](C)[C@@H]1NC(=O)[C@H](CCCNC(=N)N)NC(=O)[C@H](Cc2ccc(O)cc2)NC(=O)[C@@H]2CCCN2C(=O)[C@H]2CCCN2C(=O)[C@H](CCCCN)NC(=O)[C@H](CCC(N)=O)NC(=O)[C@H](Cc2ccc(O)cc2)NC(=O)[C@@H]2CSSC[C@H](NC1=O)C(=O)N[C@@H](CCCNC(=N)N)C(=O)NCC(=O)N1CCC[C@@H]1C(=O)N[C@@H](CCCNC(=N)N)C(=O)N[C@@H](CCCNC(=N)N)C(=O)N[C@@H](Cc1ccc3ccccc3c1)C(=O)N2` [Ex. 71] (cyclo(YRICRG[dP]RR[2Nal]CYQK[dP]P); disulfide 4-11), in series [1], the Hemolysis at 100 μM is 0.1%. In addition, the GI50 at 48 h in the series “in vitro” worked out at 34000 nM. Besides, the IC50 at CXCR4 was determined as 2.7 nM.
For `N=C(N)NCCC[C@@H]1NC(=O)[C@@H]2CSSC[C@H](NC(=O)[C@H](Cc3ccc4ccccc4c3)NC(=O)[C@H](CCCNC(=N)N)NC(=O)[C@H](CCCNC(=N)N)NC(=O)[C@H]3CCCN3C(=O)CNC1=O)C(=O)N[C@@H](Cc1ccc(O)cc1)C(=O)N[C@@H](CCC(N)=O)C(=O)N[C@@H](CCCCN)C(=O)N1CCC[C@@H]1C(=O)N1CCC[C@H]1C(=O)N[C@@H](Cc1ccc(O)cc1)C(=O)N[C@@H](CCCNC(=N)N)C(=O)N[C@@H](Cc1ccc(O)cc1)C(=O)N2` [Ex. 72] (cyclo(YRYCRG[dP]RR[2Nal]CYQK[dP]P); disulfide 4-11), the Hemolysis at 100 μM in series [1] is 0.5%. For the same molecule, growth in “in vitro” was halved (GI50 at 48 h) at 36000 nM. Moreover, the IC50 on CXCR4 amounted to 3.9 nM.
In the case of `N=C(N)NCCC[C@@H]1NC(=O)[C@@H]2CSSC[C@H](NC(=O)[C@H](Cc3ccc4ccccc4c3)NC(=O)[C@H](CCCNC(=N)N)NC(=O)[C@H](CCCNC(=N)N)NC(=O)[C@H]3CCCN3C(=O)CNC1=O)C(=O)N[C@@H](Cc1ccc(O)cc1)C(=O)N[C@@H](CCC(N)=O)C(=O)N[C@@H](CCCCN)C(=O)N1CCC[C@@H]1C(=O)N1CCC[C@H]1C(=O)N[C@@H](Cc1ccc(O)cc1)C(=O)N[C@@H](CCCNC(=N)N)C(=O)N[C@@H](Cc1c[nH]c3ccccc13)C(=O)N2` [Ex. 73] (cyclo(YRWCRG[dP]RR[2Nal]CYQK[dP]P); disulfide 4-11), in series [1], the Hemolysis at 100 μM was found to be 0.3%. This molecule yielded a GI50 at 48 h in “in vitro” of 20000 nM. For the same molecule, on CXCR4, the IC50 stood at 8.8 nM.
The corresponding values for `N=C(N)NCCC[C@@H]1NC(=O)[C@@H]2CSSC[C@H](NC(=O)[C@H](Cc3ccc4ccccc4c3)NC(=O)[C@H](CCCNC(=N)N)NC(=O)[C@H](CCCNC(=N)N)NC(=O)[C@H]3CCCN3C(=O)CNC1=O)C(=O)N[C@@H](Cc1ccc(O)cc1)C(=O)N[C@@H](CCC(N)=O)C(=O)N[C@@H](CCCCN)C(=O)N1CCC[C@@H]1C(=O)N1CCC[C@H]1C(=O)N[C@@H](Cc1ccc(O)cc1)C(=O)N[C@@H](CCCNC(=N)N)C(=O)N1CCC[C@H]1C(=O)N2` [Ex. 74] (cyclo(YRPCRG[dP]RR[2Nal]CYQK[dP]P); disulfide 4-11) are 0.4%, 40000 nM and 19.5 nM.
In series [1], `N=C(N)NCCC[C@@H]1NC(=O)[C@@H]2CSSC[C@H](NC(=O)[C@H](Cc3ccc4ccccc4c3)NC(=O)[C@H](CCCNC(=N)N)NC(=O)[C@H](Cc3ccc(F)cc3)NC(=O)[C@H]3CCCN3C(=O)CNC1=O)C(=O)N[C@@H](Cc1ccc(O)cc1)C(=O)N[C@@H](CCC(N)=O)C(=O)N[C@@H](CCCCN)C(=O)N1CCC[C@@H]1C(=O)N1CCC[C@H]1C(=O)N[C@@H](Cc1ccc(O)cc1)C(=O)N[C@@H](CCCNC(=N)N)C(=O)N[C@@H](CCCNC(N)=O)C(=O)N2` [Ex. 76] (cyclo(YR[Cit]CRG[dP][Phe(4-F)]R[2Nal]CYQK[dP]P); disulfide 4-11) had a Hemolysis at 100 μM of 0.1%. In the series “in vitro”, this molecule gave a GI50 at 48 h of more than 100000 nM. Besides, the IC50 on CXCR4 stood at 5.6 nM.
For the molecule `N=C(N)NCCC[C@@H]1NC(=O)[C@@H]2CSSC[C@H](NC(=O)[C@H](Cc3ccc4ccccc4c3)NC(=O)[C@H](CCCNC(=N)N)NC(=O)[C@H](CCCNC(=N)N)NC(=O)[C@H]3CCCN3C(=O)CNC1=O)C(=O)N[C@@H](Cc1ccc(O)cc1)C(=O)N[C@@H](CC(N)=O)C(=O)N[C@@H](CCCCN)C(=O)N1CCC[C@@H]1C(=O)N1CCC[C@H]1C(=O)N[C@@H](Cc1ccc(O)cc1)C(=O)N[C@@H](CCCNC(=N)N)C(=O)N[C@@H](CCCNC(N)=O)C(=O)N2` [Ex. 77] (cyclo(YR[Cit]CRG[dP]RR[2Nal]CYNK[dP]P); disulfide 4-11), in series [1], the Hemolysis at 100 μM was found to be 0.2%. In “in vitro”, this molecule had a GI50 at 48 h of more than 100000 nM. Further, the IC50 on CXCR4 came out at 7 nM.
The corresponding values for `N=C(N)NCCC[C@@H]1NC(=O)[C@@H]2CSSC[C@H](NC(=O)[C@H](Cc3ccc4ccccc4c3)NC(=O)[C@H](CCCNC(=N)N)NC(=O)[C@H](CCCNC(=N)N)NC(=O)[C@H]3CCCN3C(=O)CNC1=O)C(=O)N[C@@H](Cc1ccc(O)cc1)C(=O)N[C@@H](CC(=O)O)C(=O)N[C@@H](CCCCN)C(=O)N1CCC[C@@H]1C(=O)N1CCC[C@H]1C(=O)N[C@@H](Cc1ccc(O)cc1)C(=O)N[C@@H](CCCNC(=N)N)C(=O)N[C@@H](CCCNC(N)=O)C(=O)N2` [Ex. 78] (cyclo(YR[Cit]CRG[dP]RR[2Nal]CYDK[dP]P); disulfide 4-11) are 0.1%, 69000 nM and 11 nM.
`N=C(N)NCCC[C@@H]1NC(=O)[C@@H]2CSSC[C@H](NC(=O)[C@H](Cc3ccc4ccccc4c3)NC(=O)[C@H](CCCNC(=N)N)NC(=O)[C@H](CCCNC(=N)N)NC(=O)[C@H]3CCCN3C(=O)CNC1=O)C(=O)N[C@@H](Cc1ccc(O)cc1)C(=O)N[C@@H](CCCCN)C(=O)N[C@@H](CCCCN)C(=O)N1CCC[C@@H]1C(=O)N1CCC[C@H]1C(=O)N[C@@H](Cc1ccc(O)cc1)C(=O)N[C@@H](CCCNC(=N)N)C(=O)N[C@@H](CCCNC(N)=O)C(=O)N2` [Ex. 79] (cyclo(YR[Cit]CRG[dP]RR[2Nal]CYKK[dP]P); disulfide 4-11) yielded a Hemolysis at 100 μM in series [1] of 0%. This molecule also showed a GI50 at 48 h in “in vitro” of 94000 nM. Further, the IC50 on CXCR4 was found to be 2.4 nM.
The corresponding values for `C[C@@H]1NC(=O)[C@H](Cc2ccc(O)cc2)NC(=O)[C@@H]2CSSC[C@H](NC(=O)[C@H](CCCNC(N)=O)NC(=O)[C@H](CCCNC(=N)N)NC(=O)[C@H](Cc3ccc(O)cc3)NC(=O)[C@@H]3CCCN3C(=O)[C@H]3CCCN3C(=O)[C@H](CCCCN)NC1=O)C(=O)N[C@@H](CCCNC(=N)N)C(=O)NCC(=O)N1CCC[C@@H]1C(=O)N[C@@H](CCCNC(=N)N)C(=O)N[C@@H](CCCNC(=N)N)C(=O)N[C@@H](Cc1ccc3ccccc3c1)C(=O)N2` [Ex. 80] (cyclo(YR[Cit]CRG[dP]RR[2Nal]CYAK[dP]P); disulfide 4-11) are 0.1%, 44000 nM and 2.9 nM.
The corresponding values for `N=C(N)NCCC[C@@H]1NC(=O)[C@@H]2CSSC[C@H](NC(=O)[C@H](Cc3ccc4ccccc4c3)NC(=O)[C@H](CCCNC(=N)N)NC(=O)[C@H](CCCNC(=N)N)NC(=O)[C@H]3CCCN3C(=O)CNC1=O)C(=O)N[C@@H](Cc1ccc(O)cc1)C(=O)N[C@@H](CO)C(=O)N[C@@H](CCCCN)C(=O)N1CCC[C@@H]1C(=O)N1CCC[C@H]1C(=O)N[C@@H](Cc1ccc(O)cc1)C(=O)N[C@@H](CCCNC(=N)N)C(=O)N[C@@H](CCCNC(N)=O)C(=O)N2` [Ex. 81] (cyclo(YR[Cit]CRG[dP]RR[2Nal]CYSK[dP]P); disulfide 4-11) are 0%, 45000 nM and 4.9 nM.
